# Earlier results in PMC5742115, “Pharmacophore Modeling and in Silico/in Vitro Screening for Human Cytochrome P450 11B1 and Cytochrome P450 11B2 Inhibitors” (Frontiers in Chemistry, 2017).
# Read-outs that look alike come from different tables or passages of the source.
# Legend:
# CYP11B1 = settings: reported activity, supplementary Table 1, read-out: CYP11B1 IC50, cited from earlier work
# CYP11B2 = settings: reported activity, supplementary Table 1, read-out: CYP11B2 IC50, cited from earlier work
SMILES,"IC50 (CYP11B1; ref Gobbi et al., 2013) [nM]","IC50 (CYP11B2; ref Gobbi et al., 2013) [nM]","IC50 (CYP11B1; ref Emmerich et al., 2013) [nM]","IC50 (CYP11B2; ref Emmerich et al., 2013) [nM]",also measured
O=C1CCc2cc(Cc3cccnc3)cc3c2N1CC3 [CHEMBL2312965],–,–,–,–,"IC50 (CYP11B1; ref Yin et al., 2013): 16 nM; IC50 (CYP11B2; ref Yin et al., 2013): 74 nM"
C=C(c1cccnc1)c1cc2c3c(c1)CCN3C(=O)CC2 [CHEMBL2312966],–,–,–,–,"IC50 (CYP11B1; ref Yin et al., 2013): 41 nM; IC50 (CYP11B2; ref Yin et al., 2013): 468 nM"
CC(c1cccnc1)c1cc2c3c(c1)CCN3C(=O)CC2 (stereo not drawn) [CHEMBL2312967],–,–,–,–,"IC50 (CYP11B1; ref Yin et al., 2013): 4 nM; IC50 (CYP11B2; ref Yin et al., 2013): 37 nM"
O=C1CCc2cc(C(c3cccnc3)c3cccc(Cl)c3)cc3c2N1CC3 (stereo not drawn) [CHEMBL2312971],–,–,–,–,"IC50 (CYP11B1; ref Yin et al., 2013): 36 nM; IC50 (CYP11B2; ref Yin et al., 2013): > 5000 nM"
O=C1CCc2cc(C(c3ccc(F)cc3)c3cccnc3)cc3c2N1CC3 (stereo not drawn) [CHEMBL2312972],–,–,–,–,"IC50 (CYP11B1; ref Yin et al., 2013): 78 nM; IC50 (CYP11B2; ref Yin et al., 2013): 587 nM"
Cc1nnc2n1-c1c(Cl)cc(-c3cnccc3C3CC3)cc1CC2 [CHEMBL2331703],–,–,–,–,"IC50 (CYP11B1; ref Blass, 2013a): 6930 nM; IC50 (CYP11B2; ref Blass, 2013a): 48 nM"
COC(C)(C)c1cncc(-c2ccc3c(c2)CCc2nnc(C)n2-3)c1 [CHEMBL2331704],–,–,–,–,"IC50 (CYP11B1; ref Blass, 2013a): 108 nM; IC50 (CYP11B2; ref Blass, 2013a): 5 nM"
Cc1nnc2n1-c1ccc(-c3cncc4ccccc34)cc1CC2 [CHEMBL2331706],–,–,–,–,"IC50 (CYP11B1; ref Blass, 2013a): 407 nM; IC50 (CYP11B2; ref Blass, 2013a): 5 nM"
Fc1ccc(Cn2ccnc2)cn1 [CHEMBL2331707],–,–,–,–,"IC50 (CYP11B1; ref Blass, 2013b): 72 nM; IC50 (CYP11B2; ref Blass, 2013b): 1740 nM"
O=c1c2ccccc2oc2c(Cl)ccc(Cn3ccnc3)c12 [CHEMBL2333326],0.5,3,–,–,–
O=c1c2ccccc2oc2c(I)ccc(Cn3ccnc3)c12 [CHEMBL2333327],19.2,23.5,–,–,–
COc1ccc(Cn2ccnc2)c2c(=O)c3ccccc3oc12 [CHEMBL2333329],80.1,41.1,–,–,–
CCOc1ccc(Cn2ccnc2)c2c(=O)c3ccccc3oc12 [CHEMBL2333330],25.4,14.8,–,–,–
CC(C)Oc1ccc(Cn2ccnc2)c2c(=O)c3ccccc3oc12 [CHEMBL2333331],92.5,19.1,–,–,–
CC(C)CCOc1ccc(Cn2ccnc2)c2c(=O)c3ccccc3oc12 [CHEMBL2333332],24.4,25.2,–,–,–
CCC(C)Oc1ccc(Cn2ccnc2)c2c(=O)c3ccccc3oc12 (stereo not drawn) [CHEMBL2333333],13.1,15.3,–,–,–
O=c1c2ccccc2oc2c(OCC3CC3)ccc(Cn3ccnc3)c12 [CHEMBL2333334],5.5,24.1,–,–,–
O=c1c2ccccc2oc2c(OC3CCCC3)ccc(Cn3ccnc3)c12 [CHEMBL2333335],268,99.7,–,–,–
Cc1cncc(Cc2ccc(-c3ccccc3)nc2)c1 [CHEMBL2417553],–,–,2,33,–
FC(F)(F)c1cncc(Cc2ccc(-c3ccccc3)nc2)c1 [CHEMBL2417613],–,–,38,115,–
COc1cncc(Cc2ccc(-c3ccccc3)nc2)c1 [CHEMBL2417614],–,–,5,25,–
Oc1cncc(Cc2ccc(-c3ccccc3)nc2)c1 [CHEMBL2417615],–,–,51,836,–
c1ccc(-c2cncc(Cc3ccc(-c4ccccc4)nc3)c2)cc1 [CHEMBL2417616],–,–,1.3,0.5,–
CC(c1ccc(-c2ccccc2)nc1)n1ccnc1 (stereo not drawn) [CHEMBL2417619],–,–,33,200,–
CCC(c1ccc(-c2ccccc2)nc1)n1ccnc1 (stereo not drawn) [CHEMBL2417620],–,–,28,92,–
c1ccc(-c2ccc(C(C3CC3)n3ccnc3)cn2)cc1 (stereo not drawn) [CHEMBL2417621],–,–,21,25,–
c1ccc(-c2ccc(C(c3ccco3)n3ccnc3)cn2)cc1 (stereo not drawn) [CHEMBL2417623],–,–,69,74,–
CC(c1ccc(-c2ccsc2)nc1)n1ccnc1 (stereo not drawn) [CHEMBL2417625],–,–,21,151,–
c1cn(C(c2ccc(-c3ccsc3)nc2)C2CC2)cn1 (stereo not drawn) [CHEMBL2417626],–,–,11,31,–
CC(c1ccc(-c2cccc3ccccc23)nc1)n1ccnc1 (stereo not drawn) [CHEMBL2417627],–,–,60,273,–
